In patent US8163269B2, “Bioactive stents for type II diabetics and methods for use thereof” (priority 2004, dated 2012):
No end group written: not given here.

How the values were obtained:
ECs = assay: adhesion assay with peptides conjugated to PEA polymer; type: cell-based, Human; design: key to adhesion assay microscopic observation, cell shape: r = round; s = spindly; sp = spread; conditions: for ability of peptide to bind to cells after conjugation / adhesion of ECs compared to SMCs on conjugated peptide versus unconjugated PEA-H polymer: peptide conjugated to PEA-H polymer; for adhesion relative to basal levels: assays 1 and 2
Procedure: (§1) The attachment factor, in a phosphate buffered saline (PBS) solution, was coated onto a non-tissue culture dish and allowed to adsorb overnight at 4° C. The following day the plate was blocked for 1 hour at room temperature with heat-inactivated, 0.2% bovine serum albumin (BSA) solution (in PBS) to prevent non-specific attachment. A timed adhesion assay was then conducted. The assay includes negative control wells coated only with PBS and positive control wells coated with fibronectin. So far, none of the adhesion factors tested has surpassed the cell adhesion and cell spreading induced by fibronectin. In addition to adhesion, spreading is also an important consideration in determining the suitability of a substrate. If the cells are not able to spread, it is unlikely that the cells will proliferate on that surface.
The first conjugation was done to the PEA-H version of the polymer (acid) since this polymer has suitable sites for conjugation. The peptides can be covalently bound to this polymer via a wide variety of suitable functional groups. For example, when the biodegradable polymer is a poly(ester amide) (PEA) containing Lysine residues, the carboxyl groups from the Lysine residues can be used to react with a complementary moiety on the peptide, such as an hydroxy, amino, thio moiety, and the like (5). Specifically, the PEA-H polymer with free COOH reacts with water soluble carbodiimide (WSC) and N-Hydroxysuccinimide (HOSu) to produce an activated ester, which, in turn, reacts with an amino functional group of a peptide to provide an amide linkage (FIG. 6B). By using a fluorescent dansyl-lysine (FIG. 5), the optimal reaction conditions for activation and conjugation were determined (FIG. 6A).
The conjugation of CS5 and GREDVDY peptides to the polymer was then performed using the same protocol (FIG. 6B).
A similar protocol (see flow chart FIG. 6B) was used to conjugate combinations of the acid polymer with PEA polymer of structure (I) containing acetylated ends and benzylated COOH groups, (PEA-AcBz) and PEA-TEMPO (50/50 and 10/90), respectively. By combining the conjugatable acid form with the other polymers, a determination could be made whether the presence of the recruitment peptide on the polymer conferred an advantage in EC recruitment.
Microscopic observations taken at 2 h, 4 h and 6 h from duplicate wells from two representative adhesion assays are summarized in Table 2 below.

[1] = test system: endothelial cells (ECs), HCAEC=Human Coronary Artery Endothelial Cells; assay: in vitro adhesion assay, attachment factor adsorbed onto non-tissue culture dish; type: cell-based; conditions: for specificity of cell adhesion, ECs over SMCs: HCAEC versus HASMC, adsorbed peptide; for adhesion data among bioligands tested / cell adhesion and cell spreading compared with fibronectin positive control: adsorbed attachment factor
Description: Cell Recruitment to Bioactive Agents To select appropriate bioligands for use as recruitment factors in stent applications, an in vitro adhesion assay was developed. This assay can distinguish between endothelial cells (ECs) and smooth muscle cells (SMCs) to aid in selecting potential attachment factors. Both the ECs and SMCs used in these assays were purchased from Cambrex (Baltimore, Md.) (HASMC=Human Aortic Smooth Muscle Cells and HCAEC=Human Coronary Artery Endothelial Cells).
as §1
In addition to microscopic observations, cell adhesion was quantitated using an ATP assay. Data of a representative adhesion assay quantitation by ATP standard curve is shown in the graph in FIG. 4, which illustrates the comparative results obtained at 2, 4 and 6 hours into the assay. […] The cell spreading determined in microscopic observations may indicate that cell spreading can increase the overall degree of cell adhesion since more space is occupied by a well spread cell than by an adhered cell that has not spread on the surface, due to timing of data points or appropriateness of the substrate used. The ATP data are useful to support the observational findings of the adhesion assay but cannot replace the adhesion assay.

[2] = 2 h, 10/90 H/Bz (10% PEA-H and 90% PEA-Ac-Bz), Assay 1
[3] = 2 h, 10/90 H/Bz (10% PEA-H and 90% PEA-Ac-Bz), Assay 2
[4] = 2 h, 10/90 H/T (10% PEA-H and 90% PEA-Ac-TEMPO), Assay 1
[5] = 2 h, 10/90 H/T (10% PEA-H and 90% PEA-Ac-TEMPO), Assay 2
[6] = 2 h, 50/50 H/Bz (50% PEA-H and 50% PEA-Ac-Bz), Assay 1
[7] = 2 h, 50/50 H/Bz (50% PEA-H and 50% PEA-Ac-Bz), Assay 2
[8] = 2 h, 50/50 H/T (50% PEA-H and 50% PEA-Ac-TEMPO), Assay 1
[9] = 2 h, 50/50 H/T (50% PEA-H and 50% PEA-Ac-TEMPO), Assay 2
[10] = 4 h, 10/90 H/Bz (10% PEA-H and 90% PEA-Ac-Bz), Assay 1
[11] = 4 h, 10/90 H/Bz (10% PEA-H and 90% PEA-Ac-Bz), Assay 2
[12] = 4 h, 10/90 H/T (10% PEA-H and 90% PEA-Ac-TEMPO), Assay 1
[13] = 4 h, 10/90 H/T (10% PEA-H and 90% PEA-Ac-TEMPO), Assay 2
[14] = 4 h, 50/50 H/Bz (50% PEA-H and 50% PEA-Ac-Bz), Assay 1
[15] = 4 h, 50/50 H/Bz (50% PEA-H and 50% PEA-Ac-Bz), Assay 2
[16] = 4 h, 50/50 H/T (50% PEA-H and 50% PEA-Ac-TEMPO), Assay 1
[17] = 4 h, 50/50 H/T (50% PEA-H and 50% PEA-Ac-TEMPO), Assay 2
[18] = 6 h, 10/90 H/Bz (10% PEA-H and 90% PEA-Ac-Bz), Assay 1
[19] = 6 h, 10/90 H/Bz (10% PEA-H and 90% PEA-Ac-Bz), Assay 2
[20] = 6 h, 10/90 H/T (10% PEA-H and 90% PEA-Ac-TEMPO), Assay 1
[21] = 6 h, 10/90 H/T (10% PEA-H and 90% PEA-Ac-TEMPO), Assay 2
[22] = 6 h, 50/50 H/Bz (50% PEA-H and 50% PEA-Ac-Bz), Assay 1
[23] = 6 h, 50/50 H/Bz (50% PEA-H and 50% PEA-Ac-Bz), Assay 2
[24] = 6 h, 50/50 H/T (50% PEA-H and 50% PEA-Ac-TEMPO), Assay 1
[25] = 6 h, 50/50 H/T (50% PEA-H and 50% PEA-Ac-TEMPO), Assay 2

Conj REDV: GREDVDY peptide (SEQ ID NO:11) conjugated to PEA-H mixed with PEA-Ac-Bz or PEA-Ac-TEMPO polymer coating (also: conjugated to PEA polymer coating)
adhesion assay microscopic observation, % (ECs; [2]): 30%
adhesion assay microscopic observation, cell shape (ECs; [2]): r/s
adhesion assay microscopic observation, % (ECs; [3]): 30%
adhesion assay microscopic observation, cell shape (ECs; [3]): r/s/sp
adhesion assay microscopic observation, % (ECs; [4]): 30%
adhesion assay microscopic observation, cell shape (ECs; [4]): r/s
adhesion assay microscopic observation, % (ECs; [5]): 30%
adhesion assay microscopic observation, cell shape (ECs; [5]): r/s/sp
adhesion assay microscopic observation, % (ECs; [6]): 20-30%
adhesion assay microscopic observation, cell shape (ECs; [6]): r
adhesion assay microscopic observation, % (ECs; [7]): 30-40%
adhesion assay microscopic observation, cell shape (ECs; [7]): r/s/sp
adhesion assay microscopic observation, % (ECs; [8]): 20-30%
adhesion assay microscopic observation, cell shape (ECs; [8]): r
adhesion assay microscopic observation, % (ECs; [9]): 30%
adhesion assay microscopic observation, cell shape (ECs; [9]): r/s/sp
adhesion assay microscopic observation, % (ECs; [10]): 30-40%
adhesion assay microscopic observation, cell shape (ECs; [10]): r/s/sp
adhesion assay microscopic observation, % (ECs; [11]): 30-40%
adhesion assay microscopic observation, cell shape (ECs; [11]): s/sp
adhesion assay microscopic observation, % (ECs; [12]): 30-40%
adhesion assay microscopic observation, cell shape (ECs; [12]): s/sp
adhesion assay microscopic observation, % (ECs; [13]): 40%
adhesion assay microscopic observation, cell shape (ECs; [13]): s/sp
adhesion assay microscopic observation, % (ECs; [14]): 30%
adhesion assay microscopic observation, cell shape (ECs; [14]): s/sp
adhesion assay microscopic observation, % (ECs; [15]): 30-40%
adhesion assay microscopic observation, cell shape (ECs; [15]): s/sp
adhesion assay microscopic observation, % (ECs; [16]): 30%
adhesion assay microscopic observation, % (ECs; [17]): 30%
adhesion assay microscopic observation, cell shape (ECs; [17]): r/s/sp
adhesion assay microscopic observation, % (ECs; [18]): 30%
adhesion assay microscopic observation, cell shape (ECs; [18]): s/sp
adhesion assay microscopic observation, % (ECs; [19]): 30-40%
adhesion assay microscopic observation, cell shape (ECs; [19]): r/s/sp
adhesion assay microscopic observation, % (ECs; [20]): 30-40%
adhesion assay microscopic observation, cell shape (ECs; [20]): r/s/sp
adhesion assay microscopic observation, % (ECs; [21]): 40%
adhesion assay microscopic observation, cell shape (ECs; [21]): s/sp
adhesion assay microscopic observation, % (ECs; [22]): 30%
adhesion assay microscopic observation, cell shape (ECs; [22]): r/s
adhesion assay microscopic observation, % (ECs; [23]): 30-40%
adhesion assay microscopic observation, cell shape (ECs; [23]): r/s/sp
adhesion assay microscopic observation, % (ECs; [24]): 20%
adhesion assay microscopic observation, cell shape (ECs; [24]): r
adhesion assay microscopic observation, % (ECs; [25]): 30-40%
adhesion assay microscopic observation, cell shape (ECs; [25]): s/sp

GEEIQIGHIPREDVDYHLYP [CS5]
ability of peptide to bind to cells after conjugation (ECs): did not alter their ability to bind to cells
adhesion of ECs compared to SMCs on conjugated peptide versus unconjugated PEA-H polymer (ECs): adhered significantly better to the conjugated peptides than on the unconjugated PEA-H polymer
specificity of cell adhesion, ECs over SMCs [1]: showed specificity for ECs over SMCs
adhesion data among bioligands tested [1]: gave the most promising adhesion data
cell adhesion and cell spreading compared with fibronectin positive control [1]: neither of these peptide sequences equaled the large molecule fibronectin in cell adhesion or spreading

GREDVDY
adhesion relative to basal levels (ECs; 10/90 PEA-H/PEA-TEMPO (H/T) conjugated to peptide): increased adhesion over basal levels
adhesion relative to basal levels (ECs; 50/50 PEA-H/PEA-Ac-Bz (H/Bz) conjugated to peptide): increased adhesion over basal levels
cell recruitment, complete evaluation of assays with conjugated peptides on polymer (ECs; Table 2 assays): more robust in cell recruitment than the longer (20 mer) CS5 peptide
ability of peptide to bind to cells after conjugation (ECs): did not alter their ability to bind to cells
adhesion of ECs compared to SMCs on conjugated peptide versus unconjugated PEA-H polymer (ECs): adhered significantly better to the conjugated peptides than on the unconjugated PEA-H polymer
specificity of cell adhesion, ECs over SMCs [1]: showed specificity for ECs over SMCs
adhesion data among bioligands tested [1]: gave the most promising adhesion data
cell adhesion and cell spreading compared with fibronectin positive control [1]: neither of these peptide sequences equaled the large molecule fibronectin in cell adhesion or spreading

Conj CS5: CS5 peptide (SEQ ID NO:1) conjugated to PEA-H mixed with PEA-Ac-Bz or PEA-Ac-TEMPO polymer coating (GEEIQIGHIPREDVDYHLYP; also: conjugated to PEA polymer coating)
adhesion assay microscopic observation, % (ECs; [2]): 30%
adhesion assay microscopic observation, cell shape (ECs; [2]): r/s
adhesion assay microscopic observation, % (ECs; [3]): 30%
adhesion assay microscopic observation, cell shape (ECs; [3]): r/s
adhesion assay microscopic observation, % (ECs; [4]): 30%
adhesion assay microscopic observation, cell shape (ECs; [4]): r/s
adhesion assay microscopic observation, % (ECs; [5]): 30%
adhesion assay microscopic observation, cell shape (ECs; [5]): r/s/sp
adhesion assay microscopic observation, % (ECs; [6]): 20%
adhesion assay microscopic observation, cell shape (ECs; [6]): r
adhesion assay microscopic observation, % (ECs; [7]): 20-30%
adhesion assay microscopic observation, cell shape (ECs; [7]): r
adhesion assay microscopic observation, % (ECs; [8]): 20-30%
adhesion assay microscopic observation, cell shape (ECs; [8]): r/s
adhesion assay microscopic observation, % (ECs; [9]): 30%
adhesion assay microscopic observation, cell shape (ECs; [9]): r/s
adhesion assay microscopic observation, % (ECs; [10]): 40%
adhesion assay microscopic observation, cell shape (ECs; [10]): r/sp
adhesion assay microscopic observation, % (ECs; [11]): 30%
adhesion assay microscopic observation, cell shape (ECs; [11]): s/sp
adhesion assay microscopic observation, % (ECs; [12]): 30%
adhesion assay microscopic observation, cell shape (ECs; [12]): r/s/sp
adhesion assay microscopic observation, % (ECs; [13]): 30-40%
adhesion assay microscopic observation, cell shape (ECs; [13]): s/sp
adhesion assay microscopic observation, % (ECs; [14]): 30%
adhesion assay microscopic observation, cell shape (ECs; [14]): r
adhesion assay microscopic observation, % (ECs; [15]): 30%
adhesion assay microscopic observation, cell shape (ECs; [15]): r/s/sp
adhesion assay microscopic observation, % (ECs; [16]): 30%
adhesion assay microscopic observation, cell shape (ECs; [16]): r
adhesion assay microscopic observation, % (ECs; [17]): 30-40%
adhesion assay microscopic observation, cell shape (ECs; [17]): r/s/sp
adhesion assay microscopic observation, % (ECs; [18]): 30-40%
adhesion assay microscopic observation, cell shape (ECs; [18]): s/sp
adhesion assay microscopic observation, % (ECs; [19]): 30%
adhesion assay microscopic observation, cell shape (ECs; [19]): r/s/sp
adhesion assay microscopic observation, % (ECs; [20]): 30-40%
adhesion assay microscopic observation, cell shape (ECs; [20]): r/s/sp
adhesion assay microscopic observation, % (ECs; [21]): 30%
adhesion assay microscopic observation, cell shape (ECs; [21]): r/s/sp
adhesion assay microscopic observation, % (ECs; [22]): 20%
adhesion assay microscopic observation, cell shape (ECs; [22]): r
adhesion assay microscopic observation, % (ECs; [23]): 30%
adhesion assay microscopic observation, cell shape (ECs; [23]): r/s
adhesion assay microscopic observation, % (ECs; [24]): 20%
adhesion assay microscopic observation, cell shape (ECs; [24]): r
adhesion assay microscopic observation, % (ECs; [25]): 30%
adhesion assay microscopic observation, cell shape (ECs; [25]): r/s
